Test results taken from article PMC7367283, “A PIP2 substitute mediates voltage sensor-pore coupling in KCNQ activation” (Communications Biology, 2020).
Values joined by “and” are separate entries in the source; they are usually repeats but may differ in a detail not shown here. Equal values may be shown once.

Molecular target: IKs (KCNQ1 + KCNE1) (Homo sapiens, UniProt P51787)
Assay: Two-electrode voltage clamp of IKs channels expressed in Xenopus oocytes
Assay type: cell-based
Parameters: key to G/Gcontrol(max): conductance / max control conductance (control max = 1)
Details: for Current: Fig. 4g; for ∆V1/2 of activation induced by CP1 (mean): Fig. 4i dose response; for G/Gcontrol(max): Fig. 4h
Excerpt: Our previous studies have shown that the VSD of KCNQ1 activates to an intermediate state (I state) and an activated state (A state) upon membrane depolarization, and the pore can open when VSD is at either the intermediate (IO state) or activated (AO state)[23],[24]. The association of the auxiliary subunit KCNE1 with KCNQ1 affects VSD-pore coupling to suppress the IO state and enhance the AO state. Correspondingly, the association of KCNE1 also increases the PIP2 sensitivity of the channel[24],[37]. […] The most prominent effect of CP1 is to dramatically slow the deactivation of IKs, such that at 2 µM CP1, it took a 100-s interval at −120 mV for all the channels to deactivate from their previous activation (Fig. 4a). The application of 2 µM CP1 shifted the G–V relation to more negative voltages by ~13 mV (Fig. 4b). […] A fraction of the constitutively open channels might have been open during the previous test pulses and not deactivated during the shorter and less-hyperpolarized interval pulse to cause a current accumulation. […] In higher concentrations of CP1, we were not able to suppress the constitutive opening of KCNQ1 channels even with long and negative interval voltages, so that we used 20-s and −80-mV interval pulses in the recordings (Fig. 4e). […] In comparison with KCNQ1 expressed alone, CP1 caused a larger shift of the G–V relationship when KCNE1 was co-expressed (Fig. 4i). Since the IKs currents were difficult to measure accurately at high CP1 concentrations, we were unable to determine the EC50 of the channel response to CP1.
Fig. 4 Effects of CP1 on IKs channels. a, b IKs currents in the absence (left) and presence of 2 µM CP1 (right) recorded with 100-s and −120-mV interval pulses between testing voltages. Holding potential: −80 mV; testing potential: −120 to +80 mV; returning potential: −40 mV (a). G–V relations (b). c, d IKs recorded at the same conditions as in (a), except for the interval pulses, was 20 s at −80 mV. e, f IKs in the absence or presence of 10 µM CP1. The voltage protocol was the same as in (b). g, h Current (g) and relative conductance (h) increases of IKs channels by 10 µM CP1. In h, the measured conductance in CP1 at all voltages was divided by the maximum measured conductance in control, and then normalized with the maximum measured conductance in control being 1. i Dose response for ΔV1/2 of G–V relations to different CP1 concentrations as compared with those of KCNQ1 (dashed line).
The use of Xenopus laevis to obtain oocytes was approved by the Washington University Animal Studies Committee (protocol #20190030). Oocytes were manually dispersed and digested with collagenase (0.5 mg/ml, Sigma-Aldrich, Saint Louis, MO) to remove the follicle cell layer. Stage V or VI oocytes were selected and injected with cRNAs (9.2 ng) of channel or mutations. Especially, to characterize IKs, a mix of cRNAs at a molar ratio 4:1 (KCNQ1:KCNE1) was injected. For KCNQ2/KCNQ3, the molar ratio was 1:1 (KCNQ2:KCNQ3). For sodium channels, a 3:1 molar ratio (β1:NaV1.5) and for calcium channels a weight ratio 1:1:1 (β1:α2/δ1:CaV1.2) was injected, respectively. Injected oocytes were incubated in ND96 solution containing (in mM) 96 NaCl, 2 KCl, 1.8 CaCl2, 1 MgCl2, and 5 HEPES, pH 7.6, supplemented with 2.5 mM Na pyruvate and 1% penicillin–streptomycin, at 18 °C for 3–7 days before recording.
The whole-oocyte ionic currents were recorded with a GeneClamp 500B amplifier (Axon Instruments, CA) or iTEV90 amplifier (HEKA, Germany) and then sampled at 1 kHz and low-pass-filtered at 2 kHz. The Patchmaster software (HEKA, Germany) was used to acquire data. The Kir1.1 current was recorded with a high K^+ bath solution containing (in mM) 96 KCl, 4 NaCl, 1 CaCl2, 2 MgCl2, and 10 HEPES, pH 7.3–7.4. The HCN4 current was recorded in ND66 solution containing (in mM) 66 NaCl, 32 KCl, 1.8 CaCl2, 1 MgCl2, and 5 HEPES, pH 7.6. All the other potassium channels were recorded in ND96 solution. […]

shift of G–V relation (2 µM CP1, 20-s and −80-mV interval pulses): ~ 12 mV
shift of G–V relation to more negative voltages (2 µM CP1, 100-s and −120-mV interval pulses): ~ 13 mV
G/Gmax Mean (Fig. 4b, 2 µM CP1, 0 mV): 0.3833
G/Gmax Mean (Fig. 4b, 2 µM CP1, 20 mV): 0.7035
G/Gmax Mean (Fig. 4b, 2 µM CP1, 40 mV): 0.9619
G/Gmax Mean (Fig. 4b, 2 µM CP1, 60 mV): 1.0000
G/Gmax Mean (Fig. 4b, 2 µM CP1, -20 mV): 0.1567
G/Gmax Mean (Fig. 4b, 2 µM CP1, -40 mV): 0.0500
G/Gmax Mean (Fig. 4b, 2 µM CP1, -60 mV): 0.0188
G/Gmax Mean (Fig. 4b, 2 µM CP1, -80 mV): 0.0090
G/Gmax Mean (Fig. 4b, 2 µM CP1, -100 mV): 0.0050
G/Gmax Mean (Fig. 4b, 2 µM CP1, -120 mV): 0.0140
G/Gmax Mean (Fig. 4f, 10 µM CP1, 0 mV): 0.9498
G/Gmax Mean (Fig. 4f, 10 µM CP1, 10 mV): 0.9622
G/Gmax Mean (Fig. 4f, 10 µM CP1, 20 mV): 0.9768
G/Gmax Mean (Fig. 4f, 10 µM CP1, 30 mV): 0.9888
G/Gmax Mean (Fig. 4f, 10 µM CP1, 40 mV): 0.9959
G/Gmax Mean (Fig. 4f, 10 µM CP1, 50 mV): 1.0000
G/Gmax Mean (Fig. 4f, 10 µM CP1, 60 mV): 0.9995
G/Gmax Mean (Fig. 4f, 10 µM CP1, 70 mV): 0.9975
G/Gmax Mean (Fig. 4f, 10 µM CP1, 80 mV): 0.9882
G/Gmax Mean (Fig. 4f, 10 µM CP1, -10 mV): 0.9293
G/Gmax Mean (Fig. 4f, 10 µM CP1, -20 mV): 0.9108
G/Gmax Mean (Fig. 4f, 10 µM CP1, -30 mV): 0.8947
G/Gmax Mean (Fig. 4f, 10 µM CP1, -40 mV): 0.8796
G/Gmax Mean (Fig. 4f, 10 µM CP1, -50 mV): 0.8652
G/Gmax Mean (Fig. 4f, 10 µM CP1, -60 mV): 0.8490
G/Gmax Mean (Fig. 4f, 10 µM CP1, -70 mV): 0.8309
G/Gmax Mean (Fig. 4f, 10 µM CP1, -80 mV): 0.8109
G/Gmax Mean (Fig. 4f, 10 µM CP1, -90 mV): 0.7850
G/Gmax Mean (Fig. 4f, 10 µM CP1, -100 mV): 0.7801
G/Gmax Mean (Fig. 4f, 10 µM CP1, -110 mV): 0.7703
G/Gmax Mean (Fig. 4f, 10 µM CP1, -120 mV): 0.7614
Current (10 µM CP1, 0 mV): 11.3690 µA
Current (10 µM CP1, 10 mV): 13.1145 µA
Current (10 µM CP1, 20 mV): 14.8276 µA
Current (10 µM CP1, 30 mV): 16.4399 µA
Current (10 µM CP1, 40 mV): 17.8196 µA
Current (10 µM CP1, 50 mV): 18.8339 µA
Current (10 µM CP1, 60 mV): 19.4658 µA
Current (10 µM CP1, 70 mV): 19.7856 µA
Current (10 µM CP1, 80 mV): 19.9691 µA
Current (10 µM CP1, -10 mV): 9.6451 µA
Current (10 µM CP1, -20 mV): 8.0042 µA
Current (10 µM CP1, -30 mV): 6.4510 µA
Current (10 µM CP1, -40 mV): 5.0169 µA
Current (10 µM CP1, -50 mV): 3.6974 µA
Current (10 µM CP1, -60 mV): 2.5078 µA
Current (10 µM CP1, -70 mV): 1.4333 µA
Current (10 µM CP1, -80 mV): 0.5290 µA
Current (10 µM CP1, -90 mV): -0.3014 µA
Current (10 µM CP1, -100 mV): -0.9865 µA
Current (10 µM CP1, -110 mV): -1.5545 µA
Current (10 µM CP1, -120 mV): -2.0910 µA
∆V1/2 of activation induced by CP1 (mean) ([CP1] 1 µM): 14.4504 mV
∆V1/2 of activation induced by CP1 (mean) ([CP1] 2 µM): 15.8525 mV
∆V1/2 of activation induced by CP1 (mean) ([CP1] 3 µM): 21.4391 mV
∆V1/2 of activation induced by CP1 (mean) ([CP1] 5 µM): 41.6182 mV
∆V1/2 of activation induced by CP1 (mean) ([CP1] 6 µM): 46.8783 mV
∆V1/2 of activation induced by CP1 (mean) ([CP1] 10 µM): 97.2701 mV
∆V1/2 of activation induced by CP1 (mean) ([CP1] 15 µM): 120.8217 mV
∆V1/2 of activation induced by CP1 (mean) ([CP1] 20 µM): 143.8484 mV
∆V1/2 of activation induced by CP1 (mean) ([CP1] 25 µM): 174.0381 mV
G/Gcontrol(max) (10 µM CP1, 0 mV): 2.2457
G/Gcontrol(max) (10 µM CP1, 10 mV): 2.2822
G/Gcontrol(max) (10 µM CP1, 20 mV): 2.3257
G/Gcontrol(max) (10 µM CP1, 30 mV): 2.3635
G/Gcontrol(max) (10 µM CP1, 40 mV): 2.3895
G/Gcontrol(max) (10 µM CP1, 50 mV): 2.4063
G/Gcontrol(max) (10 µM CP1, 60 mV): 2.4120
G/Gcontrol(max) (10 µM CP1, 70 mV): 2.4121
G/Gcontrol(max) (10 µM CP1, 80 mV): 2.3902
G/Gcontrol(max) (10 µM CP1, -10 mV): 2.1869
G/Gcontrol(max) (10 µM CP1, -20 mV): 2.1346
G/Gcontrol(max) (10 µM CP1, -30 mV): 2.0892
G/Gcontrol(max) (10 µM CP1, -40 mV): 2.0471
G/Gcontrol(max) (10 µM CP1, -50 mV): 2.0074
G/Gcontrol(max) (10 µM CP1, -60 mV): 1.9645
G/Gcontrol(max) (10 µM CP1, -70 mV): 1.9185
G/Gcontrol(max) (10 µM CP1, -80 mV): 1.8692
G/Gcontrol(max) (10 µM CP1, -90 mV): 1.8061
G/Gcontrol(max) (10 µM CP1, -100 mV): 1.7954
G/Gcontrol(max) (10 µM CP1, -110 mV): 1.7738
G/Gcontrol(max) (10 µM CP1, -120 mV): 1.7540
G/Gmax Mean (Fig. 4d, 2 µM CP1, 0 mV): 0.2264
G/Gmax Mean (Fig. 4d, 2 µM CP1, 20 mV): 0.4604
G/Gmax Mean (Fig. 4d, 2 µM CP1, 40 mV): 0.7375
G/Gmax Mean (Fig. 4d, 2 µM CP1, 60 mV): 0.9406
G/Gmax Mean (Fig. 4d, 2 µM CP1, 80 mV): 1.0000
G/Gmax Mean (Fig. 4d, 2 µM CP1, -20 mV): 0.0874
G/Gmax Mean (Fig. 4d, 2 µM CP1, -40 mV): 0.0291
G/Gmax Mean (Fig. 4d, 2 µM CP1, -60 mV): 0.0147
G/Gmax Mean (Fig. 4d, 2 µM CP1, -80 mV): 0.0247
G/Gmax Mean (Fig. 4d, 2 µM CP1, -100 mV): 0.0692
Compound: O=S(=O)([O-])Oc1c(-c2sc3c(ccc4cccc(Cl)c43)c2OS(=O)(=O)[O-])[nH]c2ccc(Br)cc12.[Na+].[Na+] [CP1, DISODIUM 5-BROMO-2-[9-CHLORO-3-(SULFONATOOXY) NAPHTHO [1,2-B] THIEN-2-YL]-1H-INDOL-3-YL SULFATE]
outward current (Icp1/Ictrl) (10 µM CP1, Q1/E1, at +40 mV, individual oocytes): 3.3641 and 3.7408 and 2.3715 and 2.9989 and 4.6393
∆V1/2 (10 µM CP1, Q1/E1, individual oocytes): 64.6738 mV and 84.3167 mV and 109.16 mV and 34.9084 mV and 123.145 mV
τ deact at -120 mV (10 µM CP1 treated, Q1/E1, individual oocytes): 3.5736 s and 3.9322 s and 2.999 s and 3.0124 s and 2.7649 s and 3.45 s and 3.7957 s
